The results in this text go back to PubChem BioAssay AID2132 (NMMLSC, 2009).

Peptide text beside a SMILES is read from it. * marks the point of attachment. Cbz = O=C(OCc1ccccc1)*

This experiment in a line: inhibition of 26S proteasome fluorogenic peptide cleavage, counter-screen for 26S proteasome disassembly project, biochemical, fluorogenic peptides, secondary (AID 2132). The note with it: yeast 26S proteasome, peptide cleavage rate with compound, at 100 µM, stronger effect = lower value. For orientation: The purpose of a counterscreen is to sort out artefacts and off-target activity.

Regarding `CC(=O)N1C(=O)C(=C2C=C(C)OC(C)=C2)c2ccccc21`, the cleavage rate (fluorescence units/min) is, setting by setting: (with Ac-RLR-amc) 0.32; (with Ac-nLPnLD-amc) 0.2; (with Suc-LLVY-amc) 0.52.

`CC(C)C[C@@H](C=O)NC(=O)[C@H](CC(C)C)NC(=O)[C@H](CC(C)C)NC(=O)OCc1ccccc1` (Cbz-Leu-Leu-Leu-aldehyde): the cleavage rate (fluorescence units/min) runs as follows: (with Ac-RLR-amc) 0.41; (with Ac-nLPnLD-amc) 0.11; (with Suc-LLVY-amc) 0.
